According to patent publication US6518262B1, “22R-hydroxycholesta-8, 14-diene derivatives for the inhibition of meiosis” (Akzo Nobel N.V., priority 1999, dated 2003):

Assays:
[1] = test system: denuded oocytes (DO); test: Oocyte assay, agonistic testing, denuded oocytes (DO assay); assay type: cell-based, mice (B6D2-F1, strain C57BL×DBA); conditions: compound 5 μM, hypoxanthine medium, 22 hours culture, control value in brackets
Description: (§1) Oocytes arrested in meiosis contain diffused chromosomes which are surrounded by an intact nuclear envelope known as the germinal vesicle (GV). Upon reinitiation of meiosis by the midcycle gonadotropin surge, the chromosomes recondense and the GV breaks down (GVBD). In vivo, the oocyte is exposed to hypoxanthine (HX), which maintains the oocyte arrested in the meiotic prophase. This meiotic arrest can be mimicked in vitro by addition of hypoxanthine to the culture medium. The agonistic activity of meiosis activating substances is measured as the ability to overcome the hypoxanthine maintained meiotic arrest in denuded oocytes (DO) or cumulus enclosed oocytes (CEO), i.e. as the ability to induce meiotic resumption in vitro.
(§2) Ovaries are obtained from immature female mice (B6D2-F1, strain C57BL×DBA). At the age of 19, 20 or 21 days the mice are injected subcutaneously with a single dose of 20 IU follicle stimulating hormone (Humegon, Organon, The Netherlands) in saline.
Forty-eight hours after follicle stimulating hormone injection mice are killed by cervical dislocation. The ovaries are removed, freed of extraneous tissue and placed in a multidish containing 0.5 ml preparation medium at 37° C. L-15 Leibovitz medium (Gibco, pH 7.3±0.1) supplemented with bovine serum albumin (3 mg·ml^−1), L-glutamine (0.23 mM), sodium pyruvate (2 mM) and hypoxanthine (4 mM) is used as preparation medium. The antral follicles of the ovaries are punctured under a dissecting microscope using two 27-gauge needles attached to two 1 ml syringes. Cumulus enclosed oocytes (CEO) of uniform size are selected with a mouth-controlled pipette and rinsed in 0.5 ml fresh preparation medium. About 20 CEO are obtained from one ovary.
Oocytes freed from cumulus cells, i.e. denuded oocytes (DO), are obtained by gently flushing CEO through a fine-bore mouth-controlled pipette. DO were collected in fresh MEM alpha medium, containing bovine serum albumin (3 mg·ml^−1), L-glutamine (0.23 mM), sodium pyruvate (2 mM) and hypoxanthine (4 mM), and washed twice before transfer to the test medium.
(§3) The oocyte assay is performed in 3 blocks, each block represents the ovaries of one mouse (randomized block design). […] At t=0 the number of oocytes with intact germinal vesicles (GV) or germinal vesicle break-down (GVBD) is counted under an inverted microscope with differential interference contrast equipment. […] At the end of the culture period the number of oocytes with GV or GVBD per group is counted. For statistical analysis the percentage germinal vesicle breakdown is calculated for each group in one block. These percentages are subjected to arcsin transformation, and differences between control and test compounds are analyzed by an ANOVA test for a randomized block design. […]

[2] = test system: cumulus enclosed oocytes (CEO); test: Oocyte assay, agonistic testing, cumulus enclosed oocytes (CEO assay); assay type: cell-based, mice (B6D2-F1, strain C57BL×DBA); conditions: compound 5 μM, hypoxanthine medium, 22 hours culture, control value in brackets
Description: as §1, §2
Forty-eight hours after follicle stimulating hormone injection mice are killed by cervical dislocation. The ovaries are removed, freed of extraneous tissue and placed in a multidish containing 0.5 ml preparation medium at 37° C. L-15 Leibovitz medium (Gibco, pH 7.3±0.1) supplemented with bovine serum albumin (3 mg·ml^−1), L-glutamine (0.23 mM), sodium pyruvate (2 mM) and hypoxanthine (4 mM) is used as preparation medium. […]
as §3

SMILES	% GVBD DO assay exp. [1]	% GVBD CEO assay exp. [2]
CC(C)=CC[C@@H](O)[C@@H](C)[C@H]1CC=C2C3=C(CC[C@@]21C)[C@@]1(C)CC[C@H](O)C(C)(C)[C@@H]1CC3 [Example 2, (3β,5α,20S,22R)-4,4-Dimethylcholesta-8,14,24-triene-3,22-diol]	3(3) %	2(2) %
CC(C)CC[C@@H](O)[C@@H](C)[C@H]1CC=C2C3=C(CC[C@@]21C)[C@@]1(C)CC[C@H](O)C(C)(C)[C@@H]1CC3 [Example 1, (3β,5α,20S,22R)-4,4-Dimethylcholesta-8,14-diene-3,22-diol]	0(0) %	
